We go through 17 molecules from US9144239B2, “Macrocyclic picolinamides as fungicides” (DOW AGROSCIENCES LLC, priority 2012, dated 2015).

Like-named read-outs stand apart in the source and are kept apart here.

Assay type in all cases: in vivo
Assay [1] has as its system Mycosphaerella graminicola; anamorph: Septoria tritici. Kind of assay: Fungicidal activity: leaf blotch of wheat (SEPTTR), wheat seedlings. The following applies: Zymoseptoria tritici, 100 ppm, wheat. Summed up:
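Percent control derives from disease severity on treated versus untreated first leaves, rated 0–100% when symptoms were fully expressed on untreated plants. Yuma seedlings were inoculated with S. tritici spores either before or after spraying to run-off. The spray was acetone solution diluted 1:9 in water with 110 ppm Triton X-100. Infection took place in 100% RH dew chambers, then a 20 °C greenhouse.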

Another assay has as its system Leptosphaeria nodorum. Nature of the assay: Fungicidal activity: wheat glume blotch (LEPTNO). As to conditions: Parastagonospora nodorum, 24 h, 1 Day Protectant, read-out: Disease Control LEPTNO 1 DP. Here is the method:
Technical grades of materials were dissolved in acetone, which were then mixed with nine volumes of water containing 110 ppm Triton X-100. The fungicide solutions were applied onto wheat seedlings using an automated booth sprayer to run-off. All sprayed plants were allowed to air dry prior to further handling. Wheat plants (variety Yuma) were grown from seed in a greenhouse in 50% mineral soil/50% soil-less Metro mix until the first leaf was fully emerged, with 7-10 seedlings per pot. These plants were inoculated with an aqueous spore suspension of Septoria tritici either prior to or after fungicide treatments. After inoculation the plants were kept in 100% relative humidity (one day in a dark dew chamber followed by two to three days in a lighted dew chamber at 20° C.) to permit spores to germinate and infect the leaf. The plants were then transferred to a greenhouse set at 20° C. for disease to develop. When disease symptoms were fully expressed on the 1st leaves of untreated plants, infection levels were assessed on a scale of 0 to 100 percent disease severity. Percent disease control was calculated using the ratio of disease severity on treated plants relative to untreated plants. Evaluation of Fungicidal Activity: Wheat Glume Blotch (Leptosphaeria nodorum; Bayer Code […]) Wheat plants (variety Yuma) were grown from seed in a greenhouse in 50% mineral soil/50% soil-less Metro mix until the first leaf was fully emerged, with 7-10 seedlings per pot. These plants were inoculated with an aqueous spore suspension of Leptosphaeria nodorum 24 hr after fungicide treatments. After inoculation the plants were kept in 100% relative humidity (one day in a dark dew chamber followed by two days in a lighted dew chamber at 20° C.) to permit spores to germinate and infect the leaf. The plants were then transferred to a greenhouse set at 20° C. for disease to develop. Fungicide formulation, application and disease assessment followed the procedures as described in the Example A.

A further assay deals with Uncinula necator. Kind of assay: Fungicidal activity: grape powdery mildew (UNCINE). As to conditions: Erysiphe necator, 24 h, 1 Day Protectant, read-out: Disease Control UNCINE 1 DP. Here is the method: Technical grades of materials were dissolved in acetone, which were then mixed with nine volumes of water containing 110 ppm Triton X-100. The fungicide solutions were applied onto wheat seedlings using an automated booth sprayer to run-off. All sprayed plants were allowed to air dry prior to further handling. Wheat plants (variety Yuma) were grown from seed in a greenhouse in 50% mineral soil/50% soil-less Metro mix until the first leaf was fully emerged, with 7-10 seedlings per pot. These plants were inoculated with an aqueous spore suspension of Septoria tritici either prior to or after fungicide treatments. After inoculation the plants were kept in 100% relative humidity (one day in a dark dew chamber followed by two to three days in a lighted dew chamber at 20° C.) to permit spores to germinate and infect the leaf. The plants were then transferred to a greenhouse set at 20° C. for disease to develop. When disease symptoms were fully expressed on the 1st leaves of untreated plants, infection levels were assessed on a scale of 0 to 100 percent disease severity. Percent disease control was calculated using the ratio of disease severity on treated plants relative to untreated plants. Evaluation of Fungicidal Activity: Grape Powdery Mildew (Uncinula necator; Bayer Code […]) Grape seedlings (variety Carignane) were grown in soil-less Metro mix, with one plant per pot, and used in the test when approximately one month old. Plants were inoculated 24 hr after fungicide treatment by shaking spores from infected leaves over test plants. Plants were maintained in a greenhouse set at 20° C. until disease was fully developed. Fungicide formulation, application and disease assessment on the sprayed leaves followed the procedures as described in the Example A.

In assay [2] the test system is Puccinia triticina; synonym: Puccinia recondita f. sp. tritici. Nature of the assay: Fungicidal activity: wheat brown rust (PUCCRT), wheat seedlings. As to conditions: 100 ppm, wheat. In a few lines:
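Wheat (Yuma) seedlings at first-leaf stage, inoculated with Puccinia triticina spores before or after treatment, held overnight in dark dew room at 22° C, 100% RH, then greenhouse at 24° C. Acetone solutions diluted with nine volumes water containing 110 ppm Triton X-100, sprayed to run-off. Percent disease control derived from severity (0–100%) relative to untreated plants.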

The mark [3] stands for this setting: 24 h, 1 Day Protectant, read-out: Disease Control SEPTTR 1DP.
[4] abbreviates: 72 h, 3 Day Curative, read-out: Disease Control SEPTTR 3DC.
[5] abbreviates: 24 h, 1 Day Protectant, read-out: Disease Control PUCCRT 1DP.
The mark [6] stands for this setting: 72 h, 3 Day Curative, read-out: Disease Control PUCCRT 3DC.

Regarding `CCC(C)(C)O[C@H]1COC[C@H](NC(=O)c2nccc(OC)c2OCOC(C)=O)C(=O)O[C@@H](C)[C@@H]1OCC(C)C` [Compound 78], the pest or weed control at 100 ppm (in assay [1] (setting [3]); in assay [1] (setting [4]); with Leptosphaeria nodorum; in the assay on Uncinula necator; in assay [2] (setting [5]); in assay [2] (setting [6])) was 80 to 100% in each case.

As for `COc1ccnc(C(=O)N[C@H]2COC[C@H](OC(=O)C(C)C)[C@@H](OC(=O)C(C)C)[C@H](C)OC2=O)c1OCOC(C)=O` [Compound 57], the pest or weed control at 100 ppm in assay [1] (setting [3]) lay in the range of 80 to 100%; in assay [1] (setting [4]) it was 80 to 100%; in the assay with Leptosphaeria nodorum, 0 to 80%; in the assay with Uncinula necator, 0 to 80%; in assay [2] (setting [5]), 80 to 100%; in assay [2] (setting [6]), 80 to 100%.

Take `COc1ccnc(C(=O)N[C@H]2COC[C@H](OCC(C)C)[C@@H](OCC(C)C)[C@H](C)OC2=O)c1OCOC(C)=O` [Compound 3, (2-((3S,7S,8S,9S)-7,8-diisobutoxy-9-methyl-2-oxo-1,5-dioxonan-3-ylcarbamoyl)-4-methoxypyridin-3-yloxy)methyl]: the pest or weed control at 100 ppm (in assay [1] (setting [3]); in assay [1] (setting [4]); with Leptosphaeria nodorum; with Uncinula necator; in assay [2] (setting [5]); in assay [2] (setting [6])) was 80 to 100% in each case.

For the molecule `COc1ccnc(C(=O)N[C@H]2COC[C@H](OC)[C@@H](OC)[C@H](C)OC2=O)c1OCOC(C)=O` [Compound 65], the pest or weed control at 100 ppm (in assay [1] (setting [4]); with Leptosphaeria nodorum; in the assay with Uncinula necator; in assay [2] (setting [6])) was 0 to 80% in each case.

In the case of `COc1ccnc(C(=O)NC2COC[C@H](OCc3ccccc3)[C@@H](OCc3ccccc3)[C@H](C)OC2=O)c1OCOC(C)=O` (stereo partly shown) [Compound 12], the pest or weed control at 100 ppm lay within 80 to 100% in assay [1] (setting [3]); 80 to 100% in assay [1] (setting [4]); 80 to 100% in the assay with Leptosphaeria nodorum; 0 to 80% in the assay with Uncinula necator; 80 to 100% in assay [2] (setting [5]); 80 to 100% in assay [2] (setting [6]).

Regarding `COc1ccnc(C(=O)N[C@H]2COC[C@H](OCC(C)C)[C@@H](Oc3ccccc3)[C@H](C)OC2=O)c1OCOC(C)=O` [Compound 85], the pest or weed control at 100 ppm (in assay [1] (setting [3]); in assay [1] (setting [4]); with Leptosphaeria nodorum; with Uncinula necator; in assay [2] (setting [5]); in assay [2] (setting [6])) was 80 to 100% in each case.

Regarding `CCCCO[C@H]1COC[C@H](NC(=O)c2nccc(OC)c2OCOC(C)=O)C(=O)O[C@@H](C)[C@@H]1OCC(F)F` [Compound 55], the pest or weed control at 100 ppm lay in the range of 80 to 100% in assay [1] (setting [3]); 80 to 100% in assay [1] (setting [4]); 80 to 100% in the assay on Leptosphaeria nodorum; 0 to 80% in the assay with Uncinula necator; 80 to 100% in assay [2] (setting [5]); 80 to 100% in assay [2] (setting [6]).

`CCCCO[C@H]1COC[C@H](NC(=O)c2nccc(OC)c2OCOC(C)=O)C(=O)O[C@@H](C)[C@@H]1OCCOC` [Compound 54]: the pest or weed control at 100 ppm in assay [1] (setting [3]) fell in the range of 0 to 80%; in assay [1] (setting [4]), 0 to 80%; in the assay with Leptosphaeria nodorum, 80 to 100%; in the assay on Uncinula necator, 0 to 80%; in assay [2] (setting [5]), 80 to 100%; in assay [2] (setting [6]), 80 to 100%.

For `COc1ccnc(C(=O)N[C@H]2COC[C@H](Oc3ccc(F)cc3)[C@@H](Oc3ccc(F)cc3)[C@H](C)OC2=O)c1OCOC(C)=O` [Compound 231], the pest or weed control at 100 ppm in the assay on Leptosphaeria nodorum and in the assay on Uncinula necator was 80 to 100% in each case.

With `COc1ccnc(C(=O)N[C@H]2COC[C@H](Oc3ccc(F)cc3)[C@@H](Oc3ccc(F)cc3)[C@H](C)OC2=O)c1OC(C)=O` [Compound 229, 2-(((3S,7S,8S,9S)-7,8-bis(4-fluorophenoxy)-9-methyl-2-oxo-1,5-dioxonan-3-yl)carbamoyl)-4-methoxypyridin-3-yl acetate], the pest or weed control at 100 ppm with Leptosphaeria nodorum and with Uncinula necator was 80 to 100% in each case.

As to `COc1ccnc(C(=O)N[C@H]2COC[C@H](OCCCC(F)(F)F)[C@@H](OCCCC(F)(F)F)[C@H](C)OC2=O)c1OCOC(C)=O` [Compound 68], the pest or weed control at 100 ppm in assay [1] (setting [3]) is 80 to 100%; in assay [1] (setting [4]), 80 to 100%; in the assay with Leptosphaeria nodorum, 80 to 100%; in the assay on Uncinula necator it was 0 to 80%; in assay [2] (setting [5]), 80 to 100%; in assay [2] (setting [6]) it was 80 to 100%.

Take `CCCO[C@H]1[C@H](C)OC(=O)[C@@H](NC(=O)c2nccc(OC)c2OCOC(C)=O)COC[C@@H]1Oc1ccccc1` [Compound 222]: the pest or weed control at 100 ppm in assay [1] (setting [3]), in assay [1] (setting [4]), in assay [2] (setting [5]) and in assay [2] (setting [6]) was 80 to 100% throughout.

Turning to `CCCO[C@H]1COC[C@H](NC(=O)c2nccc(OC)c2OCOC(C)=O)C(=O)O[C@@H](C)[C@@H]1Oc1ccccc1` [Compound 221], the pest or weed control at 100 ppm in assay [1] (setting [3]), in assay [1] (setting [4]), in assay [2] (setting [5]) and in assay [2] (setting [6]) was 80 to 100% each time.

As for `COc1ccnc(C(=O)N[C@H]2COC[C@H](Oc3ccccc3)[C@@H](OCC(C)C)[C@H](C)OC2=O)c1OCOC(C)=O` [Compound 86], the pest or weed control at 100 ppm (in assay [1] (setting [3]); in assay [1] (setting [4]); in the assay with Leptosphaeria nodorum; in the assay with Uncinula necator; in assay [2] (setting [5]); in assay [2] (setting [6])) was 80 to 100% throughout.

Turning to `COc1ccnc(C(=O)N[C@H]2COC[C@H](OCC(C)C)[C@@H](OCC(C)C)[C@H](C)OC2=O)c1OCOC(=O)C(C)C` [Compound 2], the pest or weed control at 100 ppm in assay [1] (setting [3]), in assay [1] (setting [4]), in assay [2] (setting [5]) and in assay [2] (setting [6]) was 80 to 100% in each case.

As for `COc1ccnc(C(=O)N[C@H]2COC[C@H](OCCCc3ccccc3)[C@@H](OCCCc3ccccc3)[C@H](C)OC2=O)c1OCOC(C)=O` [Compound 60], the pest or weed control at 100 ppm is 80 to 100% in assay [1] (setting [3]); 0 to 80% in assay [1] (setting [4]); 80 to 100% in the assay with Leptosphaeria nodorum; 80 to 100% in assay [2] (setting [5]); 80 to 100% in assay [2] (setting [6]).

Turning to `COc1ccnc(C(=O)N[C@H]2COC[C@H](OCC(C)C)[C@@H](OC3CCCCC3)[C@H](C)OC2=O)c1OCOC(C)=O` [Compound 77], the pest or weed control at 100 ppm (in assay [1] (setting [3]); in assay [1] (setting [4]); in the assay with Leptosphaeria nodorum; in the assay on Uncinula necator; in assay [2] (setting [5]); in assay [2] (setting [6])) was 80 to 100% throughout.
